Results taken from patent publication US20070276011A1, “Plasminogen Activator Inhibitor-1 Inhibitor” (priority 2003, published 2007).

What follows are molecules tested against recombinant human PAI-1 (Homo sapiens, UniProt P05121) (assay: PAI-1 inhibitory activity, Test Method A (tPA fluorogenic substrate, Tris buffer pH8.0, 37 C)). Settings: 25 μM test compound; Test Method A.
Format: biochemical

recombinant human PAI-1, sequence (P05121 24-402): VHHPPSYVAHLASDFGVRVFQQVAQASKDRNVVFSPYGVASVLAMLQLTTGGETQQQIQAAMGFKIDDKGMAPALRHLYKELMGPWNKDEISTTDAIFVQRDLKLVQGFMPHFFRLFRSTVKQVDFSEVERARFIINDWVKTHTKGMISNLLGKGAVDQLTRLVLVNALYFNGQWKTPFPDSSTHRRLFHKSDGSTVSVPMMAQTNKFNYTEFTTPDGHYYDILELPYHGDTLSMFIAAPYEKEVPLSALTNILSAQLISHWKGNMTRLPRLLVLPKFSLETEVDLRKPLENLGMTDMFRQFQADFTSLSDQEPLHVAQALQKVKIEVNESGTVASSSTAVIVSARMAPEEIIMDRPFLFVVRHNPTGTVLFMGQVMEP

Row | Structure (SMILES) | Inhibitory Ratio at 25 μM (%)
1 | O=C1SC(=Cc2ccc(Cl)c(O)c2)C(=O)N1Cc1ccc(Cl)c(Cl)c1 [compound 328] | 63%
2 | COc1c(O)cccc1C=C1SC(=O)N(Cc2ccc(Cl)c(Cl)c2)C1=O [compound 329] | 34%
3 | COc1ccc(C=C2SC(=O)N(Cc3ccc(Cl)c(Cl)c3)C2=O)cc1F [compound 331, 5-(3-fluoro-4-methoxybenzylidene)-3-(3,4-dichlorobenzyl)-thiazolidine-2,4-dione] | 35%
4 | O=C1SC(=Cc2ccc(O)c(F)c2)C(=O)N1Cc1ccc(Cl)c(Cl)c1 [compound 332] | >99%
5 | COc1ccc(C=C2SC(=O)N(Cc3ccc(Cl)c(Cl)c3)C2=O)cc1C(F)(F)F [compound 333] | 73%
6 | N=C(N)NCCC[C@H](N)C(=O)O.N=C(N)NCCC[C@H](N)C(=O)O.O=C1SC(=Cc2ccc(O)c(O)c2)C(=O)N1Cc1ccc(Cl)cc1Cl [compound 335, di(L-(+)-arginine) salt of 5-(3,4-dihydroxybenzylidene)-3-(2,4-dichlorobenzyl)thiazolidine-2,4-dione] | >99%
7 | O=C1SC(=Cc2ccc3c(c2)OCO3)C(=O)N1Cc1ccc(Cl)cc1Cl [compound 336] | 61%
8 | CCOC(=O)Oc1ccc(C=C2SC(=O)N(Cc3ccc(Cl)cc3Cl)C2=O)cc1OC(=O)OCC [compound 337] | 43%
9 | O=C1SC(=Cc2cc([O-])c([O-])c(O)c2)C(=O)N1Cc1ccc(Cl)c(Cl)c1.[Na+].[Na+] [compound 338] | 85%
10 | O=C1SC(=Cc2ccc([O-])c([O-])c2)C(=O)N1Cc1ccc(Cl)cc1Cl.[Na+].[Na+] [compound 339] | >99%
11 | CCOC(=O)Oc1cc(C=C2SC(=O)N(Cc3ccc(Cl)c(Cl)c3)C2=O)cc(OC(=O)OCC)c1OC(=O)OCC [compound 340] | 56%
12 | COC(=O)c1cc(C=C2SC(=O)N(Cc3ccc(Cl)cc3Cl)C2=O)cc(O)c1O [compound 341, 5-[3,4-Dihydroxy-5-(methoxycarbonyl)benzylidene]-3-(2,4-dichlorobenzyl)thiazolidine-2,4-dione] | >99%
13 | COC(=O)c1c(O)cc(C=C2SC(=O)N(Cc3ccc(Cl)cc3Cl)C2=O)cc1O [compound 342, 5-[3,5-Dihydroxy-4-(methoxycarbonyl)benzylidene]-3-(2,4-dichlorobenzyl)thiazolidine-2,4-dione] | 37%
14 | COC(=O)c1cc(C=C2SC(=O)N(Cc3ccc(Cl)c(Cl)c3)C2=O)cc(OC)c1O [compound 343, 5-[3-methoxy-4-hydroxy-5-(methoxycarbonyl)benzylidene]-3-(3,4-dichlorobenzyl)thiazolidine-2,4-dione] | 71%
15 | COC(=O)c1cc(C=C2SC(=O)N(Cc3ccc(Cl)c(Cl)c3)C2=O)cc(O)c1O [compound 344] | >99%
16 | COc1cc(C=C2SC(=O)N(Cc3ccc(Cl)c(Cl)c3)C2=O)cc(C(=O)O)c1O [compound 345, 5-(3-Methoxy-4-hydroxy-5-carboxybenzlidene)-3-(3,4-dichlorobenzyl)thiazolidine-2,4-dione] | 89%
17 | COc1cc(C=C2SC(=O)N(Cc3ccc(Cl)c(Cl)c3)C2=O)cc([N+](=O)[O-])c1O [compound 346, 5-(3-methoxy-4-hydroxy-5-nitrobenzylidene)-3-(3,4-dichlorobenzyl)thiazolidine-2,4-dione] | >99%
18 | COc1cc(C=C2SC(=O)N(Cc3ccc(Cl)c(Cl)c3)C2=O)cc(OC)c1OC [compound 348] | 44%
19 | COc1ccc(NC(=O)c2cc(C=C3SC(=O)N(Cc4ccc(Cl)c(Cl)c4)C3=O)ccc2O)cc1OC [compound 351, 5-[4-Hydroxy-3-(3,4-dimethoxyphenylcarbamoyl)benzylidene]-3-(3,4-dichlorobenzyl)thiazolidine-2,4-dione] | 54%
20 | COc1ccc(NC(=O)c2cc(C=C3SC(=O)N(Cc4ccc(Cl)c(Cl)c4)C3=O)ccc2O)cc1 [compound 353, 5-[4-hydroxy-3-(4-methoxyphenylcarbamoyl)benzylidene]-3-(3,4-dichlorobenzyl)thiazolidine-2,4-dione] | 66%
21 | O=C(Nc1ccc(O)cc1)c1cc(C=C2SC(=O)N(Cc3ccc(Cl)c(Cl)c3)C2=O)ccc1O [compound 354] | 72%
22 | COc1cccc(NC(=O)c2cc(C=C3SC(=O)N(Cc4ccc(Cl)c(Cl)c4)C3=O)ccc2O)c1 [compound 355, 5-[4-hydroxy-3-(3-methoxyphenylcarbamoyl)benzylidene]-3-(3,4-dichlorobenzyl)thiazolidine-2,4-dione] | >99%

Row | Structure (SMILES) | Inhibitory Ratio at 25 μM (%)
23 | O=C(Nc1cccc(O)c1)c1cc(C=C2SC(=O)N(Cc3ccc(Cl)c(Cl)c3)C2=O)ccc1O [compound 356] | >99%
24 | COc1ccc(NC(=O)c2cccc(C=C3SC(=O)N(Cc4ccc(Cl)c(Cl)c4)C3=O)c2)cc1OC [compound 357] | 82%
25 | O=C(O)c1cc(C=C2SC(=O)N(Cc3ccc(Cl)c(Cl)c3)C2=O)ccc1O [compound 358, 5-(3-Carboxy-4-hydroxybenzylidene)-3-(3,4-dichlorobenzyl)thiazolidine-2,4-dione] | 95%
26 | COc1ccc(C=C2SC(=O)N(Cc3ccc(Cl)c(Cl)c3)C2=O)cc1NC(=O)c1ccc(O)c(O)c1 [compound 359, 5-[4-Methoxy-3-(3,4-dihydroxybenzoylamino)benzylidene]-3-(3,4-dichlorobenzyl)thiazolidine-2,4-dione] | >99%
27 | COc1ccc(NC(=O)c2cc(C=C3SC(=O)N(Cc4ccc(Cl)c(Cl)c4)C3=O)cc(OC)c2O)cc1C(F)(F)F [compound 360] | >99%
28 | COc1cc(C=C2SC(=O)N(Cc3ccc(Cl)c(Cl)c3)C2=O)cc(C(=O)Nc2ccc(O)c(C)c2)c1O [compound 361] | >99%
29 | COc1ccc(COC(=O)c2cc(C=C3SC(=O)N(Cc4ccc(-c5ccccc5)cc4)C3=O)ccc2O)cc1 [compound 362, 5-[3-(4-Methoxybenzyloxycarbonyl)-4-hydroxybenzylidene]-3-(4-phenylbenzyl)thiazolidine-2,4-dione] | >99%
30 | O=C(OCc1ccccc1)c1cc(C=C2SC(=O)N(Cc3cc(C(F)(F)F)ccc3C(F)(F)F)C2=O)ccc1O [compound 363, 5-(3-Benzyloxycarbonyl-4-hydroxybenzylidene)-3-[2,5-bis(trifluoromethyl)benzyl]thiazolidine-2,4-dione] | 84%
31 | O=C(Nc1cc(C=C2SC(=O)N(Cc3ccc(Cl)c(Cl)c3)C2=O)ccc1O)c1ccc(OC(F)(F)F)cc1 [compound 365] | >99%
32 | O=C(Nc1cccc(C=C2SC(=O)N(Cc3ccc(Cl)c(Cl)c3)C2=O)c1)c1ccc(O)c(O)c1 [compound 370] | >99%
33 | COc1ccc(NC(=O)c2cc(C=C3SC(=O)N(Cc4ccc(-c5ccccc5)cc4)C3=O)ccc2O)cc1OC [compound 371, 5-[4-Hydroxy-3-(3,4-dimethoxyphenylcarbamoyl)benzylidene]-3-(4-phenylbenzyl)thiazolidine-2,4-dione] | >99%
34 | COc1ccc(NC(=O)c2cc(C=C3SC(=O)N(Cc4cc(C(F)(F)F)ccc4C(F)(F)F)C3=O)ccc2O)cc1OC [compound 372, 5-[4-Hydroxy-3-(3,4-dimethoxyphenylcarbamoyl)benzylidene]-3-[2,5-bis(trifluoromethyl)benzyl]thiazolidine-2,4-dione] | >99%
35 | O=C(Nc1ccc(O)c(O)c1)c1cc(C=C2SC(=O)N(Cc3ccc(-c4ccccc4)cc3)C2=O)ccc1O [compound 373] | 93%
36 | O=C(Nc1ccc(O)c(O)c1)c1cc(C=C2SC(=O)N(Cc3cc(C(F)(F)F)ccc3C(F)(F)F)C2=O)ccc1O [compound 374] | >99%
37 | COc1ccc(NC(=O)c2cc(C=C3SC(=O)N(CCc4ccc(Cl)cc4)C3=O)ccc2O)cc1OC [compound 375, 5-[4-Hydroxy-3-(3,4-dimethoxyphenylcarbamoyl)benzylidene]-3-[2-(4-chlorophenyl)ethyl]thiazolidine-2,4-dione] | 63%
38 | COc1ccc(NC(=O)c2cc(C=C3SC(=O)N(Cc4ccc([N+](=O)[O-])cc4)C3=O)ccc2O)cc1OC [compound 376, 5-[4-Hydroxy-3-(3,4-dimethoxyphenylcarbamoyl)benzylidene]-3-(4-nitrobenzyl)thiazolidine-2,4-dione] | 84%
39 | O=C(Nc1ccc(O)c(O)c1)c1cc(C=C2SC(=O)N(CCc3ccc(Cl)cc3)C2=O)ccc1O [compound 377] | 81%
40 | O=C(Nc1ccc(O)c(O)c1)c1cc(C=C2SC(=O)N(Cc3ccc([N+](=O)[O-])cc3)C2=O)ccc1O [compound 378] | 86%
41 | O=C(Nc1cc(C=C2SC(=O)N(Cc3ccc(Cl)c(Cl)c3)C2=O)ccc1O)c1ccc(O)c(O)c1 [compound 380] | >99%
42 | COc1ccc(C(=O)Nc2cc(C=C3SC(=O)N(Cc4ccc(Cl)c(Cl)c4)C3=O)ccc2OC)cc1 [compound 381, 5-[4-methoxy-3-(4-methoxybenzoylamino)benzylidene]-3-(3,4-dichlorobenzyl)thiazolidine-2,4-dione] | 27%
43 | O=C(Nc1cc(C=C2SC(=O)N(Cc3ccc(Cl)c(Cl)c3)C2=O)ccc1O)c1ccc(O)cc1 [compound 382] | 97%
